Test results published in patent US10827753B2, “Compositions and methods for controlling nematodes” (Monsanto Technology LLC, priority 2007, dated 2020).
Marks after values point to notes of the source that are not given here.

Experiments:
Meloidogyne incognita [1] = assay: M. incognita miniaturized greenhouse assay on cucumber seedlings (root galling); format: in vivo; parameters: key to 1 ppm gall ratings / 1 ppm gall rating: mean of 3 gall ratings: 0=0-5%, 1=6-20%, 2=21-50%, 3=51-100% root galled; settings: for 8 ppm gall ratings: average of triplicate gall rating, scale 0-3 (% root mass galled)
Procedure: The test compound is dissolved in an acetone solution and added to water. A sprouted cucumber seedling is placed into a vial with dry sand and the water-chemical solution is added immediately. Twenty four hours later Meloidogyne incognita eggs are added to the vials and 10 to 12 days later the roots are evaluated for nematode galling.
Cucumber seeds are sprouted for 3 days in moist paper towels. Acceptable sprouts should be 3 to 4 cm long with several lateral roots just emerging. Stock solutions of chemistry are prepared in a mixture of acetone and Triton X100 (412 mg in 500 mL) to a final concentration of 5 mg/mL. The chemical stock solution is then added to 10 mL deionized water plus 0.015% Triton X100 and mixed thoroughly. This is enough to test each condition in triplicate. Ten mL dry sand is added to each vial. At this time the solubility of the chemistry is visually determined and recorded as either ppt (large precipitates) or cloudy (fine precipitates). Seedlings are planted by tilting the vial and laying the seedling in the correct orientation so that the cotyledons are just above the sand and then tilting back to cover the radicles with sand. 3.3 ml water/chemical mix is added to each vial and the vials placed in racks under fluorescent light banks. The vials are inoculated two days after planting by adding 500 vermiform M. incognita eggs to each vial in 50 uL of deionized or spring water. The vials are then kept under the fluorescent lamps at ambient room temperature and watered as needed with 1 mL deionized water, usually twice during duration of test. Harvest of the cucumber plants is done 10 to 12 days after inoculation by washing sand off the roots. A root gall rating and visual phytotoxicity rating is assigned using the following scales: Gall rating scale (Gall: % root mass galled): 0=0-5%; 1=6-20%; 2=21-50%; and 3=51-100%. The average of the triplicate gall rating is then calculated: green=0.00-0.33 (no galls); yellow=0.67-1.33 (mild galling); orange=1.67-2.33 (moderate galling); red=2.67-3.00 (severe galling). Visual phytotoxicity scale is also assigned (Vis. tox; visual reduction in root mass compared to the control): rs1=mild stunting; rs2=moderate stunting; rs3=severe stunting.

root knot nematode (RKN) = assay: RKN greenhouse soil assay on cucumber plants; format: in vivo, Meloidogyne incognita
Text: Cucumber seeds are planted in a sandy soil mixture in two inch square plastic pots. When the cotyledons are fully opened and just as the first leaf begins to emerge, usually 7 days after planting, chemistry for the 7 day treatment is applied. One week later the chemistry for the 0 day treatment is applied. Separate plants are used for each application. The plants are generally in the 1-2 leaf stage now. At least four hours after the chemistry application the pots are inoculated with root knot nematode (RKN) eggs. Plants are rated for galling 14 days after the egg inoculation.
One milligram of chemistry per four pots is equal to one kilogram per hectare of chemical. A standard test uses four replications. For rates above 2 kg/ha, the desired amount of chemical is weighed into a 30 ml vial (example: 8 kg/ha rate=8 mg chemical in 30 ml vial). The chemical is dissolved in 2 ml of appropriate solvent, generally acetone. For rates below 2 kg/ha, 2 milligrams of chemistry is weighed into the vial and dissolved in 2 ml of the solvent. The appropriate amount of chemical concentrate is then pipetted into a separate 30 ml vial and solvent is added to bring the volume to 2 ml (example 0.5 kg/ha=0.5 ml of concentrate+1.5 ml solvent). Each dissolved concentrate is then brought to a total of 20 milliliters using 0.05% Triton X 100 surfactant solution.
Pots to be treated are moist but not saturated. To each of four pots, five milliliters of the appropriate chemical solution is pipetted to the media surface making sure to avoid contact with the base of the plant. Immediately following chemical application, using a mist nozzle, the pot surface is wetted sufficiently to saturate the pot watering in the chemistry. The chemical application is done in the morning.
Nematode eggs, either SCN or RKN, are added to distilled water to create a concentration of 1000 vermiform eggs […]. At least four hours after chemical treatment the eggs are applied to the treated pots plus non-treated check plants. A small hole about 1 cm deep is punched into the pot surface. One milliliter of the nematode egg slurry is pipetted into the hole. Immediately afterwards the hole is gently covered. Watering of the test plants is then restricted to only water as needed to prevent wilt for a period of 24 hours. After the 24 hour restricted watering, normal sub-irrigation watering is done for the duration of the test.

Meloidogyne incognita [2] = assay: Summer field evaluation of pre-plant incorporated compounds on squash; format: in vivo; settings: 2 kg PPI, squash
Procedure: Test plots of 33 cm diameter holes were bored 41 cm deep into clay soil and filled with a mixture of 80% sand and 20% silt loam soil. Technical compound for each treatment was dissolved in 50 ml acetone containing 250 ul of Triton X-100 surfactant. This solution was added to 450 ml water and poured onto 95 liters of sand/soil mixture in a rotating drum mixer. While continuing to rotate the mixing drum 66 grams of chopped, galled, tomato roots was added and thoroughly distributed. The treated soil was sufficient to fill the top 15 cm of each of the 6 replicate plots, thus simulating a PPI treatment. The plots were then watered lightly and a mixture of M. incognita eggs and larvae were injected 5 cm deep at 5 points within the plot (100 k eggs/larvae in 10 ml per plot). Three-week old squash (cv. Liberator III) with 1 fully expanded true leaf was planted 4 days after soil treatment, one per plot.

FC(F)(F)c1cccc(-c2noc(-c3ccco3)n2)c1 [compound 5181]
8 ppm gall ratings (Meloidogyne incognita [1]; 8 ppm): 0.33

Brc1cccc(-c2noc(-c3cccs3)n2)c1 [compound 5663]
1 ppm gall rating (Meloidogyne incognita [1]; Table 1D test b): 1.67^b | 8 ppm gall rating (Meloidogyne incognita [1]; 8 ppm, Table 1D test b): 0^b (0=0-5%) | 8 ppm gall ratings (Meloidogyne incognita [1]; 8 ppm): 0 (0=0-5%)

FC(F)(F)c1cccc(-c2noc(-c3cccs3)n2)c1 [compound 5212]
8 ppm gall ratings (Meloidogyne incognita [1]; 8 ppm): 1 (1=6-20%)

Fc1ccc(-c2cnc(-c3ccco3)o2)cc1 [compound 5618]
8 ppm gall ratings (Meloidogyne incognita [1]; 8 ppm): 1.33

Cc1cccc(-c2noc(-c3cccs3)n2)c1 [compound 5622]
8 ppm gall ratings (Meloidogyne incognita [1]; 8 ppm): 0 (0=0-5%)

Clc1cc(Br)ccc1-c1nsc(-c2ccco2)n1 [compound 5961]
percent control (galling reduction) relative to the control blank treatment (root knot nematode (RKN); 0 day treatment, 0.05 kg/ha, test c): — — 73^c percent | percent control (galling reduction) relative to the control blank treatment (root knot nematode (RKN); 0 day treatment, 0.1 kg/ha, test c): — — 88^c percent | percent control (galling reduction) relative to the control blank treatment (root knot nematode (RKN); 0 day treatment, 0.25 kg/ha, test c): — — 81^c percent

COc1ccc(-c2noc(-c3ccoc3C)n2)cc1 [compound 5869]
1 ppm gall rating (Meloidogyne incognita [1]; Table 1C test a): 1^a (1=6-20%)

Brc1ccc(-c2cnc(-c3ccco3)o2)cc1 [compound 5587]
8 ppm gall ratings (Meloidogyne incognita [1]; 8 ppm): 0 (0=0-5%)

Cc1ccccc1-c1nnc(-c2cccs2)o1 [compound 5090]
8 ppm gall ratings (Meloidogyne incognita [1]; 8 ppm): 1.67

Ic1ccc(-c2noc(-c3cccs3)n2)cc1 [compound 5468]
8 ppm gall ratings (Meloidogyne incognita [1]; 8 ppm): 1 (1=6-20%)

Clc1ccccc1-c1noc(-c2cccs2)n1 [compound 5738]
1 ppm gall rating (Meloidogyne incognita [1]; Table 1D test a): 1.33^a | 8 ppm gall rating (Meloidogyne incognita [1]; 8 ppm, Table 1D test a): 0^a (0=0-5%)

Brc1cccc(-c2noc(-c3ccco3)n2)c1 [compound 5672]
8 ppm gall ratings (Meloidogyne incognita [1]; 8 ppm): 0 (0=0-5%)

Ic1ccc(-c2noc(-c3ccco3)n2)cc1 [compound 5556]
8 ppm gall ratings (Meloidogyne incognita [1]; 8 ppm): 0.33

Clc1ccc(-c2nnc(-c3ccco3)o2)c(Cl)c1 [compound 5499]
1 ppm gall ratings (Meloidogyne incognita [1]; Table 1B test a): 1^a (1=6-20%) | 8 ppm gall ratings (Meloidogyne incognita [1]; 8 ppm): 0 (0=0-5%)

Cc1cc(Cl)ccc1-c1nnc(-c2ccoc2)o1 [compound 5876]
1 ppm gall rating (Meloidogyne incognita [1]; Table 1C test c): 1.67^c

Clc1ccc(-c2cnc(-c3ccsc3)o2)cc1 [compound 5886]
1 ppm gall rating (Meloidogyne incognita [1]; Table 1C test b): 1.33^b

Cc1ccc(-c2nnc(-c3ccco3)o2)cc1 [compound 5666]
8 ppm gall ratings (Meloidogyne incognita [1]; 8 ppm): 1.33

Cc1cccc(-c2noc(-c3ccco3)n2)c1 [compound 5625]
8 ppm gall ratings (Meloidogyne incognita [1]; 8 ppm): 0.33

c1csc(-c2nnc(-c3cccc4ccccc34)o2)c1 [compound 5456]
8 ppm gall ratings (Meloidogyne incognita [1]; 8 ppm): 0.67

Fc1cc(Cl)ccc1-c1ncc(-c2cccs2)o1 [compound 5970]
1 ppm gall ratings (Meloidogyne incognita [1]; Table 1B test e): 1^e (1=6-20%)

Brc1cccc(-c2nnc(-c3ccco3)o2)c1 [compound 5671]
8 ppm gall ratings (Meloidogyne incognita [1]; 8 ppm): 0.67

Fc1cc(Cl)ccc1-c1noc(-c2cccs2)n1 [compound 5860]
percent control (galling reduction) relative to the control blank treatment (root knot nematode (RKN); 0 day treatment, 0.25 kg/ha, test a): 47^a percent | percent control (galling reduction) relative to the control blank treatment (root knot nematode (RKN); 0 day treatment, 1 kg/ha, test a): 85^a percent | percent control (galling reduction) relative to the control blank treatment (root knot nematode (RKN); 7 day treatment, 1 kg/ha, test a): 86^a percent

Brc1ccc(-c2nnc(-c3cccs3)o2)cc1 [compound 4948]
8 ppm gall ratings (Meloidogyne incognita [1]; 8 ppm): 0 (0=0-5%)

c1ccc(-c2noc(-c3ccco3)n2)cc1 [compound 5383]
1 ppm gall ratings (Meloidogyne incognita [1]; Table 1B test a): 1.33^a

Clc1ccc(-c2nnc(-c3ccco3)o2)cc1 [compound 5082]
8 ppm gall ratings (Meloidogyne incognita [1]; 8 ppm): 1.67

CCOP(=O)(SC(C)CC)N1CCSC1=O (centres unmarked) [fosthiazate, reference compound]
0-3 vigor 16 DAP (Meloidogyne incognita [2]): 3.0 | 0-3 vigor 21 DAP (Meloidogyne incognita [2]): 3.0 | feeder root (3 = ave) 31 DAP (Meloidogyne incognita [2]): 2.3 | gall % 31 DAP (Meloidogyne incognita [2]): 5% | root wgt (g) 31 DAP (Meloidogyne incognita [2]): 26.4 g | top wgt (lbs) 31 DAP (Meloidogyne incognita [2]): 2.01 lbs | total fruit (lbs) (Meloidogyne incognita [2]): 1.25 lbs

Cc1cc(Cl)ccc1-c1nc(-c2ccco2)no1 [compound 5969]
1 ppm gall ratings (Meloidogyne incognita [1]; Table 1B test e): 1^e (1=6-20%)

c1ccc(-c2nc(-c3cccs3)cs2)cc1 [compound 1787]
1 ppm gall rating (Meloidogyne incognita [1]; Table 1D test b): 3^b (3=51-100%) | 8 ppm gall rating (Meloidogyne incognita [1]; 8 ppm, Table 1D test b): 1.67^b

c1ccc(-c2cc(-c3ccco3)n[nH]2)cc1 [3-(furan-2-yl)-5-phenyl-1H-pyrazole, reference compound]
nematicidal activity (in words, referring to table 1D) (Meloidogyne incognita [1]; 8 ppm): nematicidal activity is seen

Clc1ccc(-c2cnc(-c3cccs3)o2)cc1 [compound 5864]
1 ppm gall ratings (Meloidogyne incognita [1]; Table 1B test a): 1^a (1=6-20%)

FC(F)(F)c1ccc(-c2nnc(-c3cccs3)o2)cc1 [compound 4971]
8 ppm gall ratings (Meloidogyne incognita [1]; 8 ppm): 0.67

c1ccc(-c2cc(-c3ccco3)n[nH]2)cc1 [compound 5725]
1 ppm gall rating (Meloidogyne incognita [1]; Table 1D test a): 3^a (3=51-100%) | 8 ppm gall rating (Meloidogyne incognita [1]; 8 ppm, Table 1D test a): 1.33^a

Clc1ccc(-c2noc(-c3ccoc3)n2)cc1 [compound 5882]
1 ppm gall ratings (Meloidogyne incognita [1]; Table 1B test a): 0.67^a | 1 ppm gall rating (Meloidogyne incognita [1]; Table 1C test c): 0.67^c

Cc1ccc(-c2noc(-c3ccco3)n2)cc1 [compound 5735]
1 ppm gall rating (Meloidogyne incognita [1]; Table 1D test a): 2^a (2=21-50%) | 8 ppm gall rating (Meloidogyne incognita [1]; 8 ppm, Table 1D test a): 0^a (0=0-5%)

Clc1cccc(-c2nnc(-c3cccs3)o2)c1 [compound 5012]
8 ppm gall ratings (Meloidogyne incognita [1]; 8 ppm): 0.67

c1cncc(-c2noc(-c3ccco3)n2)c1 [compound 5292]
8 ppm gall ratings (Meloidogyne incognita [1]; 8 ppm): 0.67

c1cncc(-c2noc(-c3cccs3)n2)c1 [compound 5297]
8 ppm gall ratings (Meloidogyne incognita [1]; 8 ppm): 0.33

c1ccc(-c2csc(-c3cccs3)n2)cc1 [compound 5645]
1 ppm gall rating (Meloidogyne incognita [1]; Table 1D test b): 2^b (2=21-50%) | 8 ppm gall rating (Meloidogyne incognita [1]; 8 ppm, Table 1D test b): 0^b (0=0-5%)

Brc1ccc(-c2nc(-c3cccs3)no2)cc1 [compound 5475]
8 ppm gall ratings (Meloidogyne incognita [1]; 8 ppm): 1.33

Fc1ccc(-c2noc(-c3ccco3)n2)cc1 [compound 5478]
8 ppm gall ratings (Meloidogyne incognita [1]; 8 ppm): 0 (0=0-5%)

FC(F)(F)c1ccc(-c2nnc(-c3ccco3)o2)cc1 [compound 5132]
8 ppm gall ratings (Meloidogyne incognita [1]; 8 ppm): 1.33

Cc1ccccc1-c1noc(-c2cccs2)n1 [compound 5741]
1 ppm gall rating (Meloidogyne incognita [1]; Table 1D test a): 1^a (1=6-20%) | 8 ppm gall rating (Meloidogyne incognita [1]; 8 ppm, Table 1D test a): 0^a (0=0-5%)

Clc1ccc(-c2cnc(-c3ccoc3)o2)cc1 [compound 5887]
1 ppm gall rating (Meloidogyne incognita [1]; Table 1C test b): 1^b (1=6-20%)

Cc1ccc(-c2nnc(-c3cccs3)o2)cc1 [compound 5006]
8 ppm gall ratings (Meloidogyne incognita [1]; 8 ppm): 0 (0=0-5%)

c1ccc(-c2cnc(-c3ccco3)o2)cc1 [compound 5586]
8 ppm gall ratings (Meloidogyne incognita [1]; 8 ppm): 0.67

Cc1ccc(-c2noc(-c3cccs3)n2)cc1 [compound 5623]
8 ppm gall ratings (Meloidogyne incognita [1]; 8 ppm): 0 (0=0-5%)

Cc1occc1-c1nc(-c2ccc(Cl)cc2)no1 [compound 5867]
1 ppm gall rating (Meloidogyne incognita [1]; Table 1C test a): 1^a (1=6-20%)

Clc1ccc(-c2noc(-c3ccsc3)n2)cc1 [compound 5885]
1 ppm gall rating (Meloidogyne incognita [1]; Table 1C test a): 1^a (1=6-20%)
